Assay results taken from ChEMBL document CHEMBL1130677, “Growth inhibitory effect of juvenile hormone analogues on epimastigotes of Trypanosoma cruzi” (Bioorg Med Chem Lett, 1998).
Values after ≈ are worked out from the molar mass of the structure shown.

Tested on: Trypanosoma cruzi
Test: Growth inhibitory activity against Trypanosoma cruzi (Epimastigote)
Type: functional, organism-based

Row | IC50 | SMILES
1 | 45.7 µg/mL (≈ 136 µM) | CCCOC(=O)NCCOc1ccc(C[C@@H]2CCCC[C@@H]2O)cc1
2 | > 200 µg/mL | CCCOC(=O)NCCOc1ccc(C[C@@H]2CCCCC23OCCO3)cc1
3 | 194 µg/mL (≈ 578 µM) | CC(C)OC(=O)NCCOc1ccc(C[C@@H]2CCCC[C@H]2O)cc1
4 | > 100 µg/mL | C#CCOC(=O)NCCOc1ccc(C[C@@H]2CCCC[C@H]2O)cc1
5 | 145 µg/mL (≈ 384 µM) | CC(C)OC(=O)NCCOc1ccc(C[C@@H]2CCCCC23OCCO3)cc1
6 | 37.3 µg/mL (≈ 111 µM) | CCCOC(=O)NCCOc1ccc(C[C@@H]2CCCC[C@H]2O)cc1
7 | > 200 µg/mL | COC(=O)NCCOc1ccc(C[C@@H]2CCCC[C@H]2O)cc1
8 | 62.3 µg/mL (≈ 194 µM) | CCOC(=O)NCCOc1ccc(C[C@@H]2CCCC[C@H]2O)cc1

Row | SMILES | IC50
9 | CC(=O)N1CCN(c2ccc(OC[C@H]3CO[C@](Cn4ccnc4)(c4ccc(Cl)cc4Cl)O3)cc2)CC1 [KETOCONAZOLE] | 1.7 µg/mL (≈ 3.2 µM)
